Test results: PMC5504357, “Antifungal Potential of Copper(II), Manganese(II) and Silver(I) 1,10-Phenanthroline Chelates Against Multidrug-Resistant Fungal Species Forming the Candida haemulonii Complex: Impact on the Planktonic and Biofilm Lifestyles” (Frontiers in Microbiology, 2017)

Assays:
[1] = tested on: C. haemulonii complex; experiment: Planktonic growth, overall across all nine isolates; type: cell-based, Candida haemulonii complex; conditions: geometric mean across all nine strains; for MIC: in μM, read-out: Overall GM-MIC
Method in brief: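 Following CLSI M27-A3, compounds were serially diluted in RPMI 1640 (0.0625-32 mg/L) and incubated with isolates at 37°C for 48 h. Visual reading gave the MIC as the lowest growth-free concentration, and MICs were pooled as a geometric mean over isolates; inocula came from 48 h Sabouraud-dextrose cultures.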

[2] = tested on: Candida duobushaemulonii; experiment: Biofilm-growing cells, XTT assay, bMIC; type: cell-based; conditions: for GM-bMIC: geometric mean, C. duobushaemulonii isolates; for bMIC: mature biofilm, 48 h, 50% inhibition of metabolic activity
Method in brief: (§1)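 Metabolic activity was read by XTT reduction to formazan. Compounds were added at planktonic-assay concentrations for 48 h at 37 °C to washed 48 h biofilms grown from 10^6 cells in Sabouraud-dextrose broth. bMIC was defined as the minimal concentration inhibiting metabolic activity by 50% relative to untreated wells.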

[3] = tested on: Candida haemulonii var. vulnera; experiment: Biofilm-growing cells, XTT assay, bMIC; type: cell-based; conditions: for GM-bMIC: geometric mean, C. haemulonii var. vulnera isolates; for bMIC: mature biofilm, 48 h, 50% inhibition of metabolic activity
Method in brief: as §1

[4] = tested on: Candida haemulonii; experiment: Biofilm-growing cells, XTT assay, bMIC; type: cell-based; conditions: for GM-bMIC: geometric mean, C. haemulonii isolates, values marked * do not include LIP Ch4 (>512); for bMIC: mature biofilm, 48 h, 50% inhibition of metabolic activity
Method in brief: as §1

[5] = tested on: Candida haemulonii complex; experiment: Biofilm-growing cells, overall across isolates; type: cell-based; conditions: for Overall GM-bMIC: geometric mean across strains, values marked * do not include LIP Ch4 (>512)
Method in brief: as §1

[6] = Solubility in solvents; type: physicochemical; conditions: solvents as named
Description: {[Cu(3,6,9-tdda)(phen)2].3H2O.EtOH}n (7). Step (i): Copper(II) acetate hydrate (1.50 g; 7.51 mmol) was dissolved in ethanol (50 mL) and the solution was added to an ethanolic solution (25 mL) of 3,6,9-trioxaundecanedioic acid (3,6,9-tddaH2) (2.84 g; […]). The light-green suspension was refluxed for 1 h, and after cooling to room temperature the light-green solid, [Cu(3,6,9-tdda)].H2O, was filtered off, washed with cold ethanol and air dried. Yield: 1.88 g (82.97%). % Calculated: C: 31.84, H: 4.68. % Found: C: 32.20, H: 4.60. […] Step (ii): [Cu(3,6,9-tdda)].H2O (1.00 g; 3.31 mmol) and phen (2.39 g; 13.26 mmol) were dissolved together in ethanol (50 mL) and the resulting dark-green mixture was refluxed for 2 h. The suspension was cooled and the green solid, {[Cu(3,6,9-tdda)(phen)2]3H2O.EtOH}n(7), was filtered off, washed with cold ethanol and air dried. Yield: 1.63 g (66.09%). % Calculated: C: 54.87, H: 5.42, N: 7.53. % Found: C: 54.65, H: 5.63, N: 7.39.
[Ag2(3,6,9-tdda)(phen)4].EtOH (16). Step (i): Silver(I) acetate (3.00 g; 17.97 mmol) was dissolved in ethanol (30 mL) and the solution was added to an ethanolic solution (25 mL) of 3,6,9-trioxaundecanedioic acid (3,6,9-tddaH2) (2.84 g; 8.95 mmol) and the orange-brown suspension refluxed for 3 h. […] Green [Ag2(3,6,9-tdda)(phen)4].EtOH (16) precipitated and was filtered off, washed with cold ethanol and air dried. Yield: 0.83 g (65.10%). % Calculated: C: 57.92, H: 4.19, N: 9.32. % Found: C: 57.75, H: […], N: 9.02. IR (KBr) νmax: 3380, 3046, 2905, 1978, 1804, 1618, 1585, 1509, 1421, 1322, 1263, 1215, 1121, 1077, 1018, 932, 890, 838, 726, 621, 465, 413 cm^−1. ^1H NMR (500 MHz, DMSO-d6, 313 K, TMS) δ = 9.12(8H, s), 8.63 (8H, d), 8.08 (8H, s), 7.91 (8H, dd), 3.74 (4H, s), 3.57 (8H, dd). ^13C NMR (125 MHz, DMSO-d6, 313 K, TMS) δ = 173.41, 151.28, 143.57, 138.03, 129.24, 127.37, 124.74, 71.44, 70.42, 69.74.

| Compound | Overall GM-MIC [1] | MIC [1] | GM-bMIC [2] | bMIC ([2]; isolate LIP Ch1) | bMIC ([2]; isolate LIP Ch6) | bMIC ([2]; isolate LIP Ch8) | GM-bMIC [3] | bMIC ([3]; isolate LIP Ch5) | bMIC ([3]; isolate LIP Ch9) | bMIC ([3]; isolate LIP Ch13) | GM-bMIC [4] | bMIC ([4]; isolate LIP Ch4) | bMIC ([4]; isolate LIP Ch7) | bMIC ([4]; isolate LIP Ch14) | Overall GM-bMIC [5] | Solubility [6] | decrease in activity on going from planktonic to biofilm cells ([5]; biofilm MIC versus planktonic MIC) |
| --- | --- | --- | --- | --- | --- | --- | --- | --- | --- | --- | --- | --- | --- | --- | --- | --- | --- |
| {[Cu(3,6,9-tdda)(phen)2].3H2O.EtOH}n [compound 7] | 2.52 µg/mL | 3.37 µM | 8 mg/L | 16 mg/L | 4 mg/L | 8 mg/L | 3.17 mg/L | 4 mg/L | 4 mg/L | 2 mg/L | 8 mg/L | 32 mg/L | 4 mg/L | 4 mg/L | 5.88 mg/L | soluble in H2O, MeOH, EtOH and insoluble in ethyl acetate and acetone |  |
| CCO.O=C([O-])COCCOCCOCC(=O)[O-].[Ag+].[Ag+].c1cnc2c(c1)ccc1cccnc12.c1cnc2c(c1)ccc1cccnc12.c1cnc2c(c1)ccc1cccnc12.c1cnc2c(c1)ccc1cccnc12 [compound 16, [Ag2(3,6,9-tdda)(phen)4].EtOH] | 1 µg/mL | 0.83 µM | 6.35 mg/L | 4 mg/L | 8 mg/L | 8 mg/L | 2.52 mg/L | 4 mg/L | 1 mg/L | 4 mg/L | 16 mg/L | 32 mg/L | 16 mg/L | 8 mg/L | 6.35 mg/L | soluble in H2O, MeOH, EtOH and insoluble in ethyl acetate and acetone | 6.3 fold |
